Here are results for 17 molecules from publication PMC6269466, “Human preprocalcitonin self-antigen generates TAP-dependent and -independent epitopes triggering optimised T-cell responses toward immune-escaped tumours” (Nature Communications, 2018).

Data set [1] relates to IGR-Heu and IGR-Heu-TAP tumour cells. Briefly: IFN-γ release (ELISA) by ppCT-specific T cell clones/cloids stimulated with inhibitor-treated tumour cells. The format is cell-based, human. As for the experimental part:
IFN-γ secretion was measured using Ready-Set-Go enzyme-linked immunosorbent assay (ELISA) according to the manufacturer’s recommendation (eBioscience, ref. 88–7316). Briefly, 96-well plates were coated overnight with anti-mouse or anti-human IFN-γ mAb (capture Ab) at 4 °C. Then plates were washed with PBS–Tween 20 and saturated for 1 h. Supernatants were diluted to 1/10, transferred to plates and incubated for 2 h at RT. After washing, plates were further incubated with biotinylated anti-mouse IFN-γ mAb (detection Ab) for 1 h at RT. Plates were washed, incubated for 30 min at RT with avidin-HRP and then developed by the addition of substrate solution (TMB), followed by 10–15 min of incubation at RT in the dark. The enzymatic colour development was stopped by addition of sulphuric acid solution (2 N), and the optical densities of each well were read at 450 and 570 nm using a microplate reader (Opsys MR, Dynex Technologies). The values of 570 nm were subtracted from those of 450 nm and data were analysed. IFN-γ concentrations in supernatants were determined from the standard curve and expressed as pg/ml.
Background: An ELISA detects its analyte on a solid surface through an enzyme-linked reagent.

Data set [2] shares this test system. Nature of the data set: Tumour cell viability, annexin V/propidium iodide. Conditions: epoxomicin 10 µM, DCI 250 µM, EER1 10 µM; annexin V/PI.
Description: For proteasome, SP and ERAD inhibition, 10^6 tumour cells were resuspended in media in the presence of specific inhibitors. Briefly, tumour cells were incubated for 2 h at 37 °C with epoxomicin (10 µM, Merck Millipore, ref. 324800), DCI (250 μM, Merck Millipore, ref. 287815) or EER1 (10 μM, Merck Millipore, ref. 324521)[67],[68], washed, resuspended in acid buffer for 30 s, washed and then incubated for an additional 3 h in the presence of each inhibitor.
Heu (left) and IGR-Heu-TAP (right) tumour cells were electroporated with siRNA targeting SPP or TAP1,
or treated with epoxomicin, DCI or EER, and living cells were then detected by flow cytometry using
annexin V and propidium iodide (AV/PI) labelling. siRNA control and medium alone were used as negative
Data set [3] shares this test system. Nature of the data set: 51Cr release cytotoxicity of ppCT epitope-specific CTLs towards inhibitor-treated tumour cells.
Description: In vitro T cell cytotoxic activity was measured by a conventional 4 h chromium (^51Cr) release assay[66]. CD8^+ T cells, isolated by magnetic beads using the CD8^+ T Cell Isolation Kit (Miltenyi Biotech, ref. 130–096–495), and T cell clones and cloids were used as effector cells. For proteasome, SP and ERAD inhibition, 10^6 tumour cells were resuspended in media in the presence of specific inhibitors. Briefly, tumour cells were incubated for 2 h at 37 °C with epoxomicin (10 µM, Merck Millipore, ref. 324800), DCI (250 μM, Merck Millipore, ref. 287815) or EER1 (10 μM, Merck Millipore, ref. 324521)[67],[68], washed, resuspended in acid buffer for 30 s, washed and then incubated for an additional 3 h in the presence of each inhibitor.
Data set [4] concerns the target T1, HLA-A*0201 (Homo sapiens, UniProt P04439, D140Y/D185E/D98H/E176V/E277Q/G131W/G231S/I119V/I121R/I166T/I218V/L300P/L318F/N151K/N90K/P208A/P217A/Q86G/Q94H/R138H/R169H/T345S).
T1 construct: expressed in transfected cells; host or cells: T2 cells (ATCC CRL-1992), TAP-deficient
Nature of the data set: HLA-A*0201 binding (fixation) assay on T2 cells. Conditions: for FI (fluorescence index): T2 cells; for binding affinity and stabilization capacity towards HLA-A*0201: T2 cell line, in words. As for the experimental part:
To determine whether the candidate peptides can bind to HLA-A*0201, upregulation of peptide-induced HLA-A2 molecule expression on T2 cells (ATCC® CRL-1992™) was examined. Briefly, 3 × 10^5 T2 cells were incubated with 100 µM of the synthesized peptides and 100 ng/ml of human β2m (hβ2m, Sigma) in serum-free RPMI 1640 medium for 16 h at 37 °C. T2 cells incubated with hβ2m alone served as a negative control. Expression of HLA-A*0201 on T2 cells was then examined by staining with BB7.2 mAb, followed by fluorescein isothiocyanate (FITC)-labelled goat-anti-mouse IgG (Biolegend, ref. 405305, dilution 1/100) secondary Ab. The fluorescence index (FI) was calculated as follows: FI = (mean fluorescence intensity (MFI) with the given peptide − MFI without peptide)/MFI without peptide. The HLA-A2.1-restricted Melan-A/MART-1_26–35 peptide served as positive control.

The target of data set [5] is T1, HLA-A*0201. Nature of the data set: peptide/HLA-A*0201 complex stability assay on T2 cells. Conditions: 100 µM peptide + 100 ng/ml hβ2m overnight 37 °C, brefeldin A 10 µg/ml 1 h, then 30 min to 12 h at 37 °C, BB7.2 staining, from linear trend line. Type of data set: binding. The procedure: To test peptide/HLA-A*0201 complex stability, T2 cells were incubated at 37 °C overnight with 100 μM of each peptide in serum-free RPMI 1640 medium supplemented with 100 ng/ml of hβ2m and washed to remove free peptides. They were then incubated with 10 μg/ml of brefeldin A for 1 h to block newly synthesized HLA-A*0201 molecules from being expressed on the cell surface, washed and incubated at 37 °C for 30 min, 1, 2, 4, 6, 8 or 12 h. Subsequently, cells were stained with BB7.2 mAb and FITC-labelled goat anti-mouse IgG. For each peptide, the equation of linear trend line was determined and the half-life (DC50) of the HLA-A2-peptide complex was calculated.

For the next data set, the system named is NSCLC patient PBMCs. Nature of the data set: In vitro peptide stimulation of PBMCs, intracellular IFN-γ staining of CD8+ T cells. Type of data set: cell-based, human. Conditions: for patients who triggered IFN-γ-producing CD8+ T cells towards the peptide: HLA-A2+ NSCLC patients, PBMCs stimulated twice at 1-week intervals with 20 µM peptide, restimulated 6 h with 2.5 µM, intracellular staining, positive above mean of medium + 2 SD; for % CD8+/IFNγ+ T cells: patient 1 PBMC, stimulated 14 days then 6 h, pool of eight wells, medium 0.05%, Supplementary Figure 2a. From the text: To determine whether the identified ppCT peptides are immunogenic, we first analysed their capacity to activate specific human CD8^+ T lymphocytes in vitro. For this purpose, we twice stimulated, at 1-week intervals, lung cancer patient PBMCs with each of the four peptides and then evaluated generation of ppCT-specific CTLs by intracellular IFN-γ staining or the enzyme-linked immunospot (Elispot) assay. […] Among HLA-A2^+ patients tested by intracellular staining (see Supplementary Figure 2a), 8 out of 13, 10 out of 15 and 7 out of 15 patients triggered IFN-γ-producing CD8^+ T cells towards ppCT9–17, ppCT50–59 and ppCT91–100 peptides, respectively (Fig. 1a, b). The ppCT16–25 and MelanA/Mart-1_26–35 epitopes, included as positive controls, induced specific IFN-γ-producing CD8^+ T cells in 5 out of 15 and 6 out of 13 patient PBMCs, respectively (Fig. 1a, b). Induction of specific IFN-γ-producing cells was also observed in some PBMCs from HLA-A2^+ healthy donors (Supplementary Figure 1b and Fig. 1c). Moreover, Elispot assay confirmed induction of peptide-specific IFN-γ-producing cells in PBMCs isolated from several NSCLC patients among the 28 additional patients tested (Fig. 1d, e).
Expression of surface molecules was performed by immunofluorescence analyses using specific mAb. For cytoplasmic IFN-γ expression, human PBMCs were stimulated for 6 h at 37 °C with 2.5 µM of each peptide in the presence of 10 µg/ml Brefeldin A (Sigma, ref. B6542). After anti-CD8 staining, cells were fixed with phosphate-buffered saline (PBS) containing 2% formaldehyde; their membrane was permeabilized using PBS supplemented with 0.5% bovine serum albumin and 0.2% saponin and then stained with anti-IFN-γ mAb. Samples were analysed using an Accuri C6 cytometer or Fortessa cell analyser (BD Biosciences), and data were processed by the Cflow software (BD Biosciences) or FlowJo software (Tree Star Inc).
For induction of peptide-specific CTLs, PBMCs were isolated using Ficoll-Paque and incubated for 1 h at 37 °C with 20 µM of each peptide in RPMI medium supplemented with 1% human AB serum (SAB). Peptide-pulsed PBMCs were washed and plated at 2 × 10^5 cells/0.2 ml in U-bottom 96-microwell plates, in RPMI medium with 10% SAB, 1 % sodium pyruvate, penicillin (100 U/ml), streptomycin (10 μg/ml), IL-2 (20 U/ml, Miltenyi Biotech, ref. 130–097–745), IL-4 (10 ng/ml, Miltenyi Biotech, ref. 130–093–922) and IL-7 (10 ng/ml, Miltenyi Biotech, ref. 130–095–363). At day 7, cells were restimulated with the same medium supplemented with 20 µM peptide, and 1 week later, each microplate column was harvested and T cell functional activities were analysed. T cell clones and T cell cloids specific to ppCT peptides were generated from patient 1 by limiting dilution[63]–[65].

Setting [6] is: IGR-Heu and IGR-Heu-TAP treated with EER1 10 µM.
Where [7] appears, read: 36 h stimulation, ELISA, epoxomicin 10 µM.
The mark [8] stands for this setting: Supplementary Table 1, FI = (MFI with the given peptide − MFI without peptide)/MFI without peptide.
The mark [9] stands for this setting: Table 4, 100 µM peptide, 100 ng/ml hβ2m, serum-free RPMI 1640, 16 h, 37 °C, BB7.2 mAb, flow cytometry, FI = (MFI with peptide − MFI without peptide)/MFI without peptide.

In the case of `O=c1oc(Cl)c(Cl)c2ccccc12` [DCI, dichloroisocoumarin], the “effect on IFN-γ release of all ppCT peptide-specific T cell cloids and clones” value in data set [1] (patient 1, autologous IGR-Heu-TAP or IGR-Heu, DCI 250 µM) was “inhibited”.
With `CC1(C)C(N(O)C(=O)Nc2ccc(Cl)cc2)N(c2ccc(Cl)cc2)C(=O)N1CC(=O)N/N=C/C=C/c1ccc([N+](=O)[O-])o1` (stereo not drawn) [EER1, eeyarestatin 1], the “effect on tumour cell viability” value in data set [2] was “no or only a weak effect”. Also, in data set [3] (setting [6]), the “effect on pCT9–17- and ppCT16–25-specific CTLs” value is listed as “only a marginal effect”; the “effect on target cell killing by anti-ppCT50–59 and anti-ppCT91–100 CTLs” value is “inhibited”.
Turning to `CC[C@H](C)[C@H](NC(=O)[C@H]([C@@H](C)CC)N(C)C(C)=O)C(=O)N[C@H](C(=O)N[C@@H](CC(C)C)C(=O)[C@@]1(C)CO1)[C@@H](C)O` [epoxomicin], the “effect on tumour cell viability” value in data set [2] was “no or only a weak effect”. Moreover, the “effect on cytotoxicity of ppCT16–25-specific CTLs” value in data set [3] (CTLs from patient 1, IGR-Heu targets, epoxomicin 10 µM) was “slight increase”. Moreover, the “effect on cytotoxicity of ppCT9–17-, ppCT50–59- and ppCT91–100-specific CTL towards IGR-Heu-TAP tumour cells” value in data set [3] (tumour cells pretreated 2 h + 3 h, epoxomicin 10 µM, DCI 250 µM, 4 h 51Cr release) was “inhibited”. Moreover, in data set [1] (setting [7]), the “effect on IFN-γ release by ppCT9–17-, ppCT50–59- and ppCT91–100-specific T cell cloids stimulated with IGR-Heu-TAP” value is reported as “inhibited”; the “effect on IFN-γ release by ppCT16–25-specific T cell clones stimulated with IGR-Heu” value is “only a marginal effect”.
In the case of “AL VQDYVQMK [ppCT53–62, ppCT residues 53-62]”, the “FI (fluorescence index)” value at HLA-A*0201 [4] (setting [8]) is 0.03. The “binding affinity and stabilization capacity towards HLA-A*0201” value on HLA-A*0201 [4] is listed as “very low binding affinity”.
Turning to CMLGTYTQDF [ppCT91–100], the “DC50: half-life of the HLA-A2–peptide complexes” value on HLA-A*0201 [5] was determined as 4 h. Moreover, in the data set on NSCLC patient PBMCs, the “patients who triggered IFN-γ-producing CD8+ T cells towards the peptide” value is listed as 7 out of 15 and the “% CD8+/IFNγ+ T cells” value is 1.47%. In addition, the “FI (fluorescence index)” value at HLA-A*0201 [4] (setting [9]) came to 0.30.
Turning to FLALSILVLL [ppCT residues 9-18], the “FI (fluorescence index)” value on HLA-A*0201 [4] (setting [8]) turned out to be 0.19.
Turning to FQKFSPFLAL [ppCT residues 3-12], the “FI (fluorescence index)” value at HLA-A*0201 [4] (setting [8]) turned out to be 0.04.
The same measure, in the same setting: next, FSPFLALSIL [ppCT residues 6-15]: 0.01.
For “GNLSTCMLGTYTQDF [ppCT86–100, 15-aa-long peptide from the ppCT precursor protein]”, in the data set on NSCLC patient PBMCs, the “patients who triggered IFN-γ-producing CD8+ T cells towards the peptide” value is 5 out of 10.
Regarding “KFSPFLALSI [ppCT5–14, ppCT residues 5-14]”, the “FI (fluorescence index)” value at HLA-A*0201 [4] (setting [8]) was 0.04. Also, the “binding affinity and stabilization capacity towards HLA-A*0201” value at HLA-A*0201 [4] is “very low binding affinity”.
As for MGFQKFSPFL [ppCT residues 1-10], the “FI (fluorescence index)” value on HLA-A*0201 [4] (setting [8]) is 0.03.
For the molecule MGFQKFSPFLALSIL [ppCT1–15], in the data set on NSCLC patient PBMCs, the “patients who triggered IFN-γ-producing CD8+ T cells towards the peptide” value is listed as 7 out of 10.
On to “TLSEDEARL [ppCT41–49, ppCT residues 41-49]”, for which the “immunogenicity in PBMCs” value with NSCLC patient PBMCs (five patient and healthy donor PBMCs tested) is on record as “not immunogenic”. For the same molecule, the “FI (fluorescence index)” value at HLA-A*0201 [4] (setting [8]) was 1.78. Further, the “binding affinity and stabilization capacity towards HLA-A*0201” value on HLA-A*0201 [4] was “high binding affinity and stabilization capacity”.
Consider TLSEDEARLL [ppCT residues 41-50], for which the “FI (fluorescence index)” value on HLA-A*0201 [4] (setting [8]) turned out to be 0.19.
As for VLLQAGSLHA [ppCT16–25], the “DC50: half-life of the HLA-A2–peptide complexes” value at HLA-A*0201 [5] is reported as 3 h. Moreover, in the data set with NSCLC patient PBMCs, the “patients who triggered IFN-γ-producing CD8+ T cells towards the peptide” value is recorded as 5 out of 15 and the “% CD8+/IFNγ+ T cells” value amounted to 1.42%. Further, the “FI (fluorescence index)” value at HLA-A*0201 [4] (setting [9]) was found to be 0.24.
On to YT QDFNKFHT [ppCT residues 96-105], for which the “FI (fluorescence index)” value at HLA-A*0201 [4] (setting [8]) is listed as 0.02.
For the molecule YVQMKASE L [ppCT residues 58-66], the “FI (fluorescence index)” value at HLA-A*0201 [4] (setting [8]) stood at 0.01.
